The subject of assay [1] is EdcR (TetR-like repressor, EGO55_13520). Briefly: EdcR-dependent Pb-msf-gfp reporter de-repression in E. coli DH10B (with RT-PCR in C. tardaugens ΔedcA). Format: cell-based, Escherichia coli DH10B.
Assay [2] has the same test system. The assay is described as follows: EdcR-dependent Pb-msf-gfp reporter de-repression in E. coli DH10B. It is filed as cell-based, Escherichia coli DH10B.

As for `C[C@]12CC[C@@H]3c4ccc(O)cc4CC[C@H]3[C@@H]1CCC2=O` [E1, estrone], the EC50 in assay [1] was determined as 1380 nM.

In assay [2], `C[C@]12CC[C@@H]3c4ccc(O)cc4CC[C@H]3[C@@H]1CC[C@@H]2O` [E2, 17β-estradiol] yielded a concentration giving a half-maximal response (EC50) of 3.32 µM.

What is called EC50 is the concentration needed to bring the measured effect to its halfway point. The low end stands for higher potency in that assay, the high end for lower potency in that assay.
